Data published in patent publication US7977387B2, “Aminobenzophenone compounds” (Leo Pharma A/S, priority 2003, dated 2011).

What was measured:
TNF-α = assay: Inhibition of TNF-α secretion in LPS stimulated peripheral blood mononuclear cells; format: cell-based; details: PBMC; LPS stimulated human peripheral blood mononuclear cells, 18 hours, ELISA; read-out: The median inhibition concentration (IC50, nM) of TNF-α
Method: (§1) To study the effect of compounds of the present invention in vitro, the inhibition of IL-1β and TNF-α secretion was determined using the following procedure:
(§2) Cytokine production was measured in the media from lipopolysaccharide (LPS) stimulated peripheral blood mononuclear cells. The mononuclear cells were isolated from human peripheral blood by Lymphoprep® (Nycomed, Norway) fractionation and suspended in RPMI 1640 (growth medium) with foetal calf serum (FCS, 2%), at a concentration of 5×10^5 cells/ml. The cells were incubated in 24-well tissue culture plates in 1 ml aliquots. Test compounds were dissolved in dimethylsulfoxide (DMSO, 10 mM) and were diluted with the medium. Compounds were added to the cells for 30 minutes, then LPS ([…] final concentration) was added. The plates were incubated for 18 hours, and the concentration of IL-β and TNF-α in the medium was determined by enzyme-linked immunosorbent assays. The median inhibitory concentrations (IC50) of the compounds were calculated.

IL-1β = assay: Inhibition of IL-1β secretion in LPS stimulated peripheral blood mononuclear cells; format: cell-based; details: PBMC; LPS stimulated human peripheral blood mononuclear cells, 18 hours, ELISA; read-out: The median inhibition concentration (IC50, nM) of IL-1β
Method: as §1, §2

Structure (SMILES) | IC50 (TNF-α) | IC50 (IL-1β)
COc1ccc(C(=O)NCC(N)=O)cc1C(=O)c1ccc(Nc2ccccc2)cc1Cl [Compound 203, N-Carbamoylmethyl-3-(2-chloro-4-phenylamino-benzoyl)-4-methoxy-benzamide] | 3.2 nM | 6.3 nM
Cc1cc(F)ccc1Nc1ccc(C(=O)c2cc(C(=O)NCc3ccncc3)ccc2C)c(Cl)c1 [Compound 109] | 3.2 nM | 4 nM
Cc1ccc(C(=O)NCC(=O)NCCC(N)=O)cc1C(=O)c1ccc(Nc2ccc(F)cc2F)cc1Cl [Compound 168, N-[(2-Carbamoyl-ethylcarbamoyl)-methyl]-3-[2-chloro-4-(2,4-difluoro-phenylamino)-benzoyl]-4-methyl-benzamide] | 2.5 nM | 2.5 nM
Cc1ccc(NC(=O)C2CC(=O)NC(=O)N2)cc1C(=O)c1ccc(Nc2ccc(F)cc2F)cc1Cl (stereo not shown) [Compound 249, 2,6-Dioxo-hexahydro-pyrimidine-4-carboxylic acid {3-[2-chloro-4-(2,4-difluoro-phenylamino)-benzoyl]-4-methyl-phenyl}-amide] | 1.1 nM | 1.6 nM
CCOC(=O)CNC(=O)Nc1ccc(C)c(C(=O)c2ccc(Nc3ccc(F)cc3F)cc2Cl)c1 [Compound 261, (3-{3-[2-Chloro-4-(2,4-difluoro-phenylamino)-benzoyl]-4-methyl-phenyl}-ureido)-acetic acid ethyl ester] | 1 nM | 2.2 nM
COc1ccc(C(=O)NCCF)cc1C(=O)c1ccc(Nc2ccc(F)cc2)cc1Cl [Compound 197, 3-[2-Chloro-4-(4-fluoro-phenylamino)-benzoyl]-N-(2-fluoro-ethyl)-4-methoxy-benzamide] | 1.8 nM | 3.2 nM
O=C(c1cc(OCCCO)ccc1F)c1ccc(Nc2ccc(F)cc2F)cc1Cl [Compound 314, [2-Chloro-4-(2,4-difluoro-phenylamino)-phenyl]-[2-fluoro-5-(3-hydroxy-propoxy)-phenyl]-methanone] | 2.8 nM | 
COc1ccc(C(=O)NC(C)(CO)CO)cc1C(=O)c1ccc(Nc2c(F)cccc2F)cc1Cl [Compound 180, 3-[2-Chloro-4-(2,6-difluoro-phenylamino)-benzoyl]-N-(2-hydroxy-1-hydroxymethyl-1-methyl-ethyl)-4-methoxy-benzamide] | 3.2 nM | 2.5 nM
Cc1ccc(NC(=O)NCCc2ccccc2)cc1C(=O)c1ccc(Nc2ccc(F)cc2F)cc1Cl [Compound 272, 1-{3-[2-Chloro-4-(2,4-difluoro-phenylamino)-benzoyl]-4-methyl-phenyl}-3-phenethyl-urea] | 1.4 nM | 3.2 nM
Cc1ccc(NC(=O)Nc2cccc(C(F)(F)F)c2)cc1C(=O)c1ccc(Nc2ccc(F)cc2F)cc1Cl [Compound 263, 1-{3-[2-Chloro-4-(2,4-difluoro-phenylamino)-benzoyl]-4-methyl-phenyl}-3-(3-trifluoromethyl-phenyl)-urea] | 1.6 nM | 
COC(=O)CCC(=O)CNC(=O)c1ccc(C)c(C(=O)c2ccc(Nc3ccc(F)cc3F)cc2Cl)c1 [Compound 167, 5-{3-[2-chloro-4-(2,4-difluoro-phenylamino)-benzoyl]-4-methyl-benzoylamino}-4-oxo-pentanoic acid methyl ester] | 2 nM | 1.7 nM
CCOC(=O)CNC(=O)c1ccc(OC)c(C(=O)c2ccc(Nc3c(F)cccc3F)cc2Cl)c1 [Compound 182] | 2.2 nM | 8.9 nM
COc1ccc(CO)cc1C(=O)c1ccc(Nc2ccc(F)cc2F)cc1Cl [Compound 335, [2-Chloro-4-(2,4-difluoro-phenylamino)-phenyl]-(5-hydroxymethyl-2-methoxy-phenyl)-methanone] | 2.5 nM | 2.7 nM
COc1ccc(C(=O)NCC(O)CO)cc1C(=O)c1ccc(Nc2ccc(F)cc2F)cc1Cl (stereo not shown) [Compound 143, 3-[2-Chloro-4-(2,4-difluoro-phenylamino)-benzoyl]-N-(2,3-dihydroxy-propyl)-4-methoxy-benzamide] | 1.6 nM | 2.5 nM
Cc1cc(F)ccc1Nc1ccc(C(=O)c2cc(C(=O)NCCCN3CCOCC3)ccc2C)c(Cl)c1 [Compound 107, 3-[2-Chloro-4-(4-fluoro-2-methylphenylamino)benzoyl]-4-methyl-N-(3-morpholin-4-yl-propyl)benzamide] | 3.2 nM | 3.2 nM
Cc1ccccc1C(=O)c1ccc(Nc2cccc(F)c2C)cc1Cl [Ref. comp. f, 2-Chloro-4-(3-fluoro-2-methyl-phenylamino)-2′-methylbenzophenone, reference compound] | 4 nM | 13 nM
Cc1ccc(NC(=O)CCO)cc1C(=O)c1ccc(Nc2ccc(F)cc2F)cc1Cl [Compound 245, N-{3-[2-Chloro-4-(2,4-difluoro-phenylamino)-benzoyl]-4-methyl-phenyl}-3-hydroxy-propionamide] | 0.9 nM | 3.5 nM
Cc1ccc(C(=O)N[C@H]2CC[C@@H](O)CC2)cc1C(=O)c1ccc(Nc2ccc(Cl)cc2F)cc1Cl [Compound 135, 3-[2-Chloro-4-(4-chloro-2-fluoro-phenylamino)-benzoyl]-N-cis-(4-hydroxy-cyclohexyl)-4-methyl-benzamide] | 2 nM | 4 nM
Cc1ccc(C(=O)NCCCCO)cc1C(=O)c1ccc(Nc2ccc(F)cc2F)cc1Cl [Compound 159, 3-[2-Chloro-4-(2,4-difluoro-phenylamino)-benzoyl]-N-(4-hydroxy-butyl)-4-methyl-benzamide] | 1.3 nM | 7.9 nM
Cc1ccc(NC(=O)OCc2ccccc2)cc1C(=O)c1ccc(Nc2ccc(F)cc2F)cc1Cl [Compound 277, {3-[2-Chloro-4-(2,4-difluoro-phenylamino)-benzoyl]-4-methyl-phenyl}-carbamic acid benzyl ester] | 0.8 nM | 2.5 nM
Cc1ccc(NC(=O)CCc2ccco2)cc1C(=O)c1ccc(Nc2ccc(F)cc2F)cc1Cl [Compound 246, N-{3-[2-Chloro-4-(2,4-difluoro-phenylamino)-benzoyl]-4-methyl-phenyl}-3-furan-2-yl-propionamide] | 3.2 nM | 

Stronger by IC50 (TNF-α), values ahead:

IC50 (TNF-α) | IC50 (IL-1β) | Structure (SMILES)
0.3 nM | 0.6 nM | Cc1ccc(C(=O)NCCO)cc1C(=O)c1ccc(Nc2ccc(F)cc2)cc1Cl [Compound 190, 3-[2-Chloro-4-(4-fluoro-phenylamino)-benzoyl]-N-(2-hydroxy-ethyl)-4-methyl-benzamide]
0.2 nM | 0.6 nM | CCOC(=O)CNC(=O)c1ccc(C)c(C(=O)c2ccc(Nc3ccc(F)cc3F)cc2Cl)c1 [Compound 158, {3-[2-Chloro-4-(2,4-difluoro-phenylamino)-benzoyl]-4-methyl-benzoylamino}-acetic acid ethyl ester]
0.3 nM | 1 nM | CCOC(=O)CCNC(=O)Nc1ccc(C)c(C(=O)c2ccc(Nc3ccc(F)cc3F)cc2Cl)c1 [Compound 265, 3-(3-{3-[2-Chloro-4-(2,4-difluoro-phenylamino)-benzoyl]-4-methyl-phenyl}-ureido)-propionic acid ethyl ester]
0.6 nM | 1.4 nM | CC(=O)Nc1cccc(-c2ccc(C)c(C(=O)c3ccc(Nc4ccc(F)cc4F)cc3Cl)c2)c1 [Compound 285, N-{3′-[2-Chloro-4-(2,4-difluoro-phenylamino)-benzoyl]-4′-methyl-biphenyl-3-yl}-acetamide]
0.6 nM | 0.8 nM | CCNC(=O)Nc1ccc(C)c(C(=O)c2ccc(Nc3ccc(F)cc3F)cc2Cl)c1 [Compound 269, 1-{3-[2-Chloro-4-(2,4-difluoro-phenylamino)-benzoyl]-4-methyl-phenyl}-3-ethyl-urea]
0.3 nM | 5 nM | Cc1ccc(NC(=O)NC(C)C)cc1C(=O)c1ccc(Nc2ccc(F)cc2F)cc1Cl [Compound 275, 1-{3-[2-Chloro-4-(2,4-difluoro-phenylamino)-benzoyl]-4-methyl-phenyl}-3-isopropyl-urea]
0.6 nM | 2.8 nM | CNC(=O)c1ccc(C)c(C(=O)c2ccc(Nc3ccc(Cl)cc3F)cc2Cl)c1 [Compound 121, 3-[2-Chloro-4-(4-chloro-2-fluoro-phenylamino)-benzoyl]-4,N-dimethyl-benzamide]
0.6 nM | 2 nM | COc1cccc(NC(=O)Nc2ccc(C)c(C(=O)c3ccc(Nc4ccc(F)cc4F)cc3Cl)c2)c1 [Compound 262, 1-{3-[2-Chloro-4-(2,4-difluoro-phenylamino)-benzoyl]-4-methyl-phenyl}-3-(3-methoxy-phenyl)-urea]
0.4 nM | 1.3 nM | Cc1cc(F)ccc1Nc1ccc(C(=O)c2cc(C(=O)NCCO)ccc2C)c(Cl)c1 [Compound 119, 3-[2-Chloro-4-(4-fluoro-2-methylphenylamino)benzoyl]-N-(2-hydroxyethyl)-4-methylbenzamide]
0.4 nM | 1 nM | CCCCNC(=O)Nc1ccc(C)c(C(=O)c2ccc(Nc3ccc(F)cc3F)cc2Cl)c1 [Compound 271, 1-Butyl-3-{3-[2-chloro-4-(2,4-difluoro-phenylamino)-benzoyl]-4-methyl-phenyl}-urea]
0.6 nM | 5.6 nM | Cc1ccc(-c2cccc(CO)c2)cc1C(=O)c1ccc(Nc2ccc(F)cc2F)cc1Cl [Compound 282, [2-Chloro-4-(2,4-difluoro-phenylamino)-phenyl]-(3′-hydroxymethyl-4-methyl-biphenyl-3-yl)-methanone]
